Laboratory results reported in article PMC5118230, “Effects of acetaminophen on mitochondrial complex I activity in the rat liver and kidney: a PET study with ^18F-BCPP-BF” (EJNMMI Research, 2016).
Values belong to the compound of their own block, whether it stands above or below them.

Columns and labels:
[1] = parameters: method as in PMID 24285187, PMID 24470629; conditions: pH 7.4; cited from earlier work
MC-I [2] = biological target: MC-I; parameters: method as in PMID 24285187, PMID 24470629; conditions: affinity to MC-I; cited from earlier work
[3] = system: mitochondrial complex I (MC-I); experiment: PET kinetics and distribution of 18F-BCPP-BF in rat abdominal organs; assay type: in vivo
Description: (§1) Four animals per group were used for PET imaging.
(§2) Rats anesthetized by 1.5–2.0% isoflurane in O2 were positioned prone on a fixation plate and placed in the gantry hole of the PET scanner (SHR-7700, Hamamatsu Photonics, Hamamatsu, Japan). After a transmission scan for 15 min using a ^68Ge-^68Ga rotation rod source, ^18F-BCPP-BF at ca. 15 MBq was intravenously injected into each rat via the tail vein, and this was followed by an emission scan with list mode data acquisition (every 1 ms) for 90 min. The body temperature of each animal was monitored to record throughout the study using a Thermo-Hygro Recorder (TR-72Ui, T&D Corporation, Matsumoto, Japan).
(§3) The PET data obtained were reconstructed by Dynamic RAMLA (DRAMA) method with a Gauss filter of 1.0-mm FWHM and attenuation correction using the transmission scan data. Dynamic images every 2 min for the time activity curve (TAC) as well as summation images in the early (from 15 to 30 min after ^18F-BCPP-BF injection) and late (from 70 to 90 min) phases were reconstructed. Since there were no information on the TACs of ^18F-BCPP-BF in the liver and kidney, we conducted PET data acquisition up to 90 min after the injection.
(§4) Standard uptake value (SUV) images were created as follows: SUV=CTWs/Dinj
(§5) where C T is the tissue radioactivity (Bq/mL) obtained from PET images, W s is the body weight (g) of the rat being examined, and D inj is the injected dose (Bq) of ^18F-BCPP-BF. Each summation SUV image was superimposed on the corresponding X-CT images obtained using ClairvivoCT (Shimadzu Corporation, Kyoto, Japan). Volumes of interest (VOIs) were selected on summation images of the kidney (renal cortex and pelvis) and liver in the early (from 15 to 30 min) and late (from 70 to 90 min) phases and TACs were obtained from dynamic image data in each organ as SUV by setting the early phase VOIs.

[4] = system: mitochondrial complex I (MC-I); parameters: method as in PMID 24470629; conditions: with time, significant at the later phase of 60 min after injection; cited from earlier work
[5] = system: mitochondrial complex I (MC-I); experiment: effects of acetaminophen on MC-I activity (18F-BCPP-BF uptake, PET); assay type: in vivo, rat
Description: In order to evaluate the acute effects of acetaminophen, vehicle or acetaminophen at a dose of 100 or 300 mg/kg in 10 mL/kg of vehicle (saline containing 20% Tween-80) was intraperitoneally administered 2 or 24 h before the PET probe injection.
as §2, §3, §4, §5

liver [6] = system: liver; parameters: method as in PMID 26102222; conditions: acetaminophen 300 mg/kg, mice; cited from earlier work
kidney = experiment: biochemical parameters for renal function in urine and serum after acetaminophen; assay type: in vivo, rat
Description: (§6) In a separate study from PET measurements, physiological and biochemical assessments were conducted on four animals for each time and dosing condition. Body weight measurements, urine collection, and blood sampling were conducted 2, 6, and 24 h after the administration of acetaminophen. A rat was placed in a metabolic cage on a 12/12-h light/dark cycle, and urine samples were collected for 24 h and centrifuged to remove suspended material, and the supernatants were analyzed to measure total protein, creatinine, and N-acetyl-β-D-glucosaminidase (NAG) using a biochemical automatic analyzer (JCA-BM6010, JEOL Ltd., Tokyo, Japan). Blood sample was collected from the tail vein, and the serum fraction separated from the blood was used in assay of alanine aminotransferase (ALT), aspartate aminotransferase (AST), lactate dehydrogenase (LDH), bilirubin (BIL), and BUN using a biochemical automatic analyzer (JCA-BM6010, JEOL Ltd., Tokyo, Japan).

liver [7] = experiment: biochemical parameters for hepatic function in serum after acetaminophen; assay type: in vivo, rat
Description: as §6

[8] = system: mitochondrial complex I (MC-I); experiment: binding specificity of 18F-BCPP-BF to MC-I: pre-administration of rotenone, PET; assay type: in vivo, rat; conditions: rotenone 0.1 mg/kg/h i.v. infusion for 1 h before probe
Description: as §1, §2, §3, §4, §5

MC-I [9] = system: MC-I; parameters: method as in PMID 24470629; conditions: rotenone 0.1 mg/kg; cited from earlier work
[10] = control rat, 15 to 30 min post-injection, i.v.
[11] = control rat, 70 to 90 min post-injection, i.v.
[12] = 24 h after acetaminophen 300 mg/kg i.p., p = 0.027
[13] = 24 h after acetaminophen 300 mg/kg i.p., p < 0.001
[14] = 24 h after acetaminophen 300 mg/kg i.p., p = 0.034

Structure (SMILES): CC(C)(C)n1ncc(OCc2ccc(OCCOCCO[11CH3])nc2)c(Cl)c1=O [^11C-BCPP-EM, 2-tert-butyl-4-chloro-5-{6-[2-(2-^11C-methoxy-ethoxy)-ethoxy]-pyridin-3-ylmethoxy}-2H-pyridazin-3-one]
logD7.4 [1]: 2.87

Structure (SMILES): COCCOCCOc1ccc(COc2cnn(C(C)(C)C)c(=O)c2Cl)cn1 [^11C-BCPP-EM, 2-tert-butyl-4-chloro-5-{6-[2-(2-^11C-methoxy-ethoxy)-ethoxy]-pyridin-3-ylmethoxy}-2H-pyridazin-3-one]
Ki (MC-I [2]): 4.7 nM

Structure (SMILES): CC(C)(C)n1ncc(OCc2ccc(OCCCCF)nc2)c(Cl)c1=O [^18F-BCPP-BF, 2-tert-butyl-4-chloro-5-[6-(4-^18F-fluorobutoxy)-pyridin-3-ylmethoxy]-2H-pyridazin-3-one]
Ki (MC-I [2]): 0.7 nM

Structure (SMILES): CC(C)(C)n1ncc(OCc2ccc(OCCCC[18F])nc2)c(Cl)c1=O [^18F-BCPP-BF, 2-tert-butyl-4-chloro-5-[6-(4-^18F-fluorobutoxy)-pyridin-3-ylmethoxy]-2H-pyridazin-3-one]
logD7.4 [1]: 4.27
averaged SUV, liver [3, 10]: 4.40 ± 0.39
averaged SUV, renal cortex [3, 10]: 8.12 ± 0.69
averaged SUV, renal pelvis [3, 10]: 4.17 ± 0.51
averaged SUV, bladder ([3]; control rat, 15 to 30 min post-injection, i.v., data not shown): 0.88 ± 0.42
averaged SUV, liver [3, 11]: 3.75 ± 0.38
averaged SUV, renal cortex [3, 11]: 6.29 ± 0.30
averaged SUV, renal pelvis [3, 11]: 4.37 ± 0.64
type of kinetics of the time activity curves ([3]; rat renal cortex and liver, PET TACs): reversible-type kinetics
accumulation of radioactivity in bone (defluorination) [4]: slightly greater accumulation of radioactivity in bone with time

Structure (SMILES): CC(C)(C)n1ncc(OCc2ccc(OCCOCCF)nc2)c(Cl)c1=O [^18F-BCPP-EF, 2-tert-butyl-4-chloro-5-{6-[2-(2-^18F-fluoroethoxy)-ethoxy]-pyridin-3-ylmethoxy}-2H-pyridazin-3-one]
Ki (MC-I [2]): 2.31 nM

Structure (SMILES): CC(C)(C)n1ncc(OCc2ccc(OCCOCC[18F])nc2)c(Cl)c1=O [^18F-BCPP-EF, 2-tert-butyl-4-chloro-5-{6-[2-(2-^18F-fluoroethoxy)-ethoxy]-pyridin-3-ylmethoxy}-2H-pyridazin-3-one]
logD7.4 [1]: 3.03

urinary protein excretion vs. 100 mg/kg (kidney; 6 h after acetaminophen 300 mg/kg i.p., p = 0.017): 46.9%
urinary protein excretion vs. control (kidney; 6 h after acetaminophen 300 mg/kg i.p., p = 0.028): 56.4%
urinary protein excretion vs. 100 mg/kg (kidney; [12]): 143.0%
urinary protein excretion vs. control (kidney; [12]): 128.9%
BUN change (kidney; serum, acetaminophen treatment, at any time): did not show any significant alterations
creatinine level vs. control (kidney; urine, 6 h after acetaminophen 300 mg/kg i.p., p < 0.001): 24.3%
creatinine level vs. 100 mg/kg (kidney; urine, 6 h after acetaminophen 300 mg/kg i.p., p = 0.002): 23.4%
NAG vs. control (kidney; urine, 24 h after acetaminophen 300 mg/kg i.p., p = 0.011): 161.8%
NAG vs. 100 mg/kg (kidney; urine, 24 h after acetaminophen 300 mg/kg i.p., p = 0.027): 164.8%
NAG change (kidney; urine, acetaminophen 100 mg/kg i.p.): did not show any significant changes
BIL vs. the corresponding 100 mg/kg (liver [7]; [14]): 233.3%
BIL vs. the corresponding control (liver [7]; [14]): 186.2%
BIL level change (liver [7]; acetaminophen 100 mg/kg i.p.): did not show significant changes
LDH change from the control condition (liver [7]; acetaminophen 100 or 300 mg/kg i.p., 2, 6 and 24 h): did not show any significant alterations
Structure (SMILES): CC(=O)Nc1ccc(O)cc1 [acetaminophen]
18F-BCPP-BF uptake by the liver vs. control ([5]; acetaminophen 100 mg/kg i.p., 2 h after, SUV 15 to 30 min, p = 0.017): 72.1%
18F-BCPP-BF uptake in the renal cortex vs. control ([5]; acetaminophen 100 mg/kg i.p., 24 h after, SUV 15 to 30 min, p = 0.038): 83.4%
18F-BCPP-BF uptake by the liver vs. control ([5]; acetaminophen 100 mg/kg i.p., 24 h after, SUV 15 to 30 min, p = 0.049): 81.4%
18F-BCPP-BF uptake by the liver vs. control ([5]; acetaminophen 300 mg/kg i.p., 2 h after, SUV 15 to 30 min, p = 0.003): 53.9%
18F-BCPP-BF uptake in the renal cortex vs. control ([5]; acetaminophen 300 mg/kg i.p., 2 h after, SUV 15 to 30 min, p = 0.025): 72.1%
18F-BCPP-BF uptake in the renal pelvis vs. control ([5]; acetaminophen 300 mg/kg i.p., 2 h after, SUV 15 to 30 min, p = 0.027): 56.6%
18F-BCPP-BF uptake by the liver vs. control ([5]; acetaminophen 300 mg/kg i.p., 24 h after, SUV 15 to 30 min, p = 0.002): 80.5%
18F-BCPP-BF uptake in the renal cortex vs. control ([5]; acetaminophen 300 mg/kg i.p., 24 h after, SUV 15 to 30 min, p = 0.009): 79.5%
reduction of MC-I activity in the liver assessed using 18F-BCPP-BF ([5]; acetaminophen 300 mg/kg in rats): approximately 50%
18F-BCPP-BF uptake in the renal pelvis ([5]; acetaminophen i.p., 24 h after, SUV 15 to 30 min): no significant reduction
reduction in 18F-2-DFR uptake by the liver (liver [6]): approximately 20%
AST vs. the corresponding 100 mg/kg (liver [7]; [13]): 383.0%
AST vs. the corresponding control (liver [7]; [13]): 322.3%
ALT vs. the corresponding control (liver [7]; 24 h after acetaminophen 300 mg/kg i.p., p = 0.001): 207.4%
ALT level change (liver [7]; acetaminophen 100 mg/kg i.p.): did not show significant changes
AST level change (liver [7]; acetaminophen 100 mg/kg i.p.): did not show significant changes

Structure (SMILES): C=C(C)[C@H]1Cc2c(ccc3c2O[C@@H]2COc4cc(OC)c(OC)cc4[C@@H]2C3=O)O1 [rotenone]
18F-BCPP-BF uptake level in renal cortex vs. control ([8]; averaged SUV 15 to 30 min, p = 0.027): 64.2%
18F-BCPP-BF uptake level in liver vs. control ([8]; averaged SUV 15 to 30 min, p = 0.038): 76.9%
inhibition degree of 18F-BCPP-BF uptake in renal cortex, of control ([8]; averaged SUV 70 to 90 min, p = 0.006): 52.2%
inhibition of the binding of MC-I PET probes to MC-I in the heart and brain (MC-I [9]): fully inhibited
